From article doi:10.1101/2021.10.07.463234v2 (biorxiv, 2021) come the findings set out here.

In general, %inhibition refers to the drop in the measured response relative to a control, in per cent. High values mean a strong effect, low ones a weak effect. In general, inhibition refers to the share of the control response that was lost under treatment.

Structures can show the parent of a compound that is named as a salt.

One assay addresses SARS-CoV-2 Mac1 (Severe acute respiratory syndrome coronavirus 2, UniProt P0DTD1). Briefly: biochemical. The following applies: 100 µM; inhibitor.
For `COc1ccccc1N1CCN(CC(O)COc2cccc3ccccc23)CC1` (stereo not drawn) [Naftopidil DiHCl], the “%inhibition” value amounted to 0%.
The same measure, in the same setting: next, `C[C@H]1c2cccc(O)c2C(=O)C2=C(O)[C@]3(O)C(=O)C(C(N)=O)=C(O)[C@@H](N(C)C)[C@@H]3[C@@H](O)[C@@H]21` [Doxycycline Hyclate]: 21.8%; `CC(=O)Oc1ccccc1C(=O)O` [Aspirin]: 26.28%.
Still for that read-out and setting: then `COc1ccccc1OCC(O)CN1CCN(CC(=O)Nc2c(C)cccc2C)CC1` (stereo not drawn) [Ranolazine], with 11.36%.

The same assay, now with this note: read-out: %inhibition.
As to `CO[C@H]1C[C@@H]2CC[C@@H](C)[C@@](O)(O2)C(=O)C(=O)N2CCCC[C@H]2C(=O)O[C@H]([C@H](C)C[C@@H]2CC[C@@H](O)[C@H](OC)C2)CC(=O)[C@H](C)/C=C(\C)[C@@H](O)[C@@H](OC)C(=O)[C@H](C)C[C@H](C)/C=C/C=C/C=C/1C` [Rapamycin (Sirolimus)], the inhibition at 100 µM stood at 30.7%.
With `CC(=O)Nc1c(I)c(NC(C)=O)c(I)c(C(=O)O)c1I` [Diatrizoate sodium], the inhibition at 100 µM worked out at 7.54%.
For `O[C@@H](c1cc(C(F)(F)F)nc2c(C(F)(F)F)cccc12)[C@H]1CCCCN1` [Mefloquine HCl], the inhibition at 100 µM was determined as 0%.
For `N[C@@H](CS)C(=O)O` [L-Cysteine HCl], the inhibition at 100 µM stood at 0%.
The same measure, in the same setting: next, `CC[C@@H](CO)NCCN[C@@H](CC)CO` [Ethambutol 2HCl]: 7.53%.
On the same count and under the same terms, then `C[C@](N)(Cc1ccc(O)c(O)c1)C(=O)O` [Methyldopa], with 8.62%.
On the same count and under the same terms, next, `CC(C)NCC(O)c1cc(O)cc(O)c1` (stereo not drawn) [Metaproterenol Sulfate]: 2.56%; `CCCCCCCCCC(=O)N[C@@H](Cc1c[nH]c2ccccc12)C(=O)N[C@H](CC(N)=O)C(=O)N[C@@H](CC(=O)O)C(=O)N[C@@H]1C(=O)NCC(=O)N[C@@H](CCCN)C(=O)N[C@@H](CC(=O)O)C(=O)N[C@H](C)C(=O)N[C@@H](CC(=O)O)C(=O)NCC(=O)N[C@H](CO)C(=O)N[C@@H]([C@H](C)CC(=O)O)C(=O)N[C@@H](CC(=O)c2ccccc2N)C(=O)O[C@@H]1C` [Daptomycin]: 1.7%.
Turning to `Cc1[nH]cnc1CN1CCc2c(c3ccccc3n2C)C1=O` [Alosetron Hydrochloride], the inhibition at 100 µM was 16.8%.
Still for that read-out and setting: then `N=C(N)NS(=O)(=O)c1ccc(N)cc1` [Sulfaguanidine], with 8.72%; and `Nc1nc(N)nc(-c2cc(Cl)ccc2Cl)n1` [Irsogladine], with 22.5%.
Still for that read-out and setting: then `CN[C@H]1C(=O)N[C@@H]2Cc3ccc(cc3)Oc3cc4cc(c3O[C@@H]3O[C@H](C(=O)O)[C@@H](O)[C@H](O)[C@H]3NC(=O)CCCCCCCCC(C)C)Oc3ccc(cc3Cl)[C@@H](O)[C@@H]3NC(=O)[C@H](NC(=O)[C@@H]4NC(=O)[C@@H](NC2=O)c2cc(cc(O)c2Cl)Oc2cc1ccc2O)c1ccc(O)c(c1)-c1c(O[C@H]2O[C@H](CO)[C@@H](O)[C@H](O)[C@@H]2O)cc(O)cc1[C@@H](C(=O)NCCCN(C)C)NC3=O` [Dalbavancin], with 23.4%.
Same read-out and setting: then `N[C@@H](Cc1ccc(N(CCCl)CCCl)cc1)C(=O)O` [Melphalan], with 3.44%; and `CC(C)(C(=O)O)c1ccc(C(O)CCCN2CCC(C(O)(c3ccccc3)c3ccccc3)CC2)cc1` (stereo not drawn) [Fexofenadine HCl], with 9.61%.
With `CCc1oc2ccccc2c1C(=O)c1cc(Br)c(O)c(Br)c1` [Benzbromarone], the inhibition at 100 µM is 6.57%.
The same measure, in the same setting: next, `COc1cc(C(C)=O)ccc1OCCCN1CCC(c2noc3cc(F)ccc23)CC1` [Iloperidone]: 0%.
Still for that read-out and setting: then `c1ccc(-c2ccc(C(c3ccccc3)n3ccnc3)cc2)cc1` (stereo not drawn) [Bifonazole], with 37%; and `CS(=O)(=O)Nc1cc2occ(NC=O)c(=O)c2cc1Oc1ccccc1` [Iguratimod], with 4.14%; and `S=c1[nH]cnc2nc[nH]c12` [Mercaptopurine (6-MP)], with 19.8%.
Consider `N[C@@H](CCC(=O)O)C(=O)O` [L-Glutamic acid monosodium salt], for which the inhibition at 100 µM was 0%.
